Measurements reported in paper PMC11589570, “Critical assessment of LC3/GABARAP ligands used for degrader development and ligandability of LC3/GABARAP binding pockets” (Nature Communications, 2024).
Several values for one entry are separate records, joined by “and”; a condition that tells them apart may be missing. Equal entries are not always repeated.

Key:
[1] = target: T1, NanoLuc-fusion full-length LC3A (Homo sapiens, UniProt Q9H492); assay: NanoBRET cellular target engagement assay in HEK293T cells; format: cell-based; details: NanoLuciferase-tagged LC3A, replicates
T1 construct: a fluorescent donor (in this case full length LC3A and LC3B); expressed in transfected cells; host or cells: HEK293T (ATCC; CRL-11268)
Experimental: (§1) NanoBRET cellular target engagement assay: Constructs contained the cDNA of full-length LC3A and LC3B cloned in frame with an N-terminal NanoLuc-fusion. Plasmids were transfected into HEK293T (ATCC; CRL-11268) cells using FuGENE HD (Promega, E2312) and proteins were allowed to express for 20 h. 10O5 and 8F20-based tracers were titrated to the protein as depicted in Supplementary Fig. 4d. For competition experiments, 1 µM of the tracers was pipetted into white 384-well plates (Greiner 781 207) using an Echo 550 acoustic dispenser (Labcyte) containing LC3A/LC3B expressing transfected cells at a density of 2.5 × 10^5 cells/mL in Opti-MEM without phenol red (Life Technologies). The system was allowed to equilibrate for 2 h at 37 °C and 5% CO2 prior to BRET measurements. To measure BRET, NanoBRET NanoGlo Substrate + Extracellular NanoLuc Inhibitor (Promega, N2540) was added as per the manufacturer’s protocol, and filtered luminescence was measured on a PHERAstar plate reader (BMG Labtech) equipped with a luminescence filter pair (450 nm BP filter (donor) and 610 nm LP filter (acceptor)). Competitive displacement data were then plotted using GraphPad Prism 9.3 software using a normalized 3-parameter curve fit. A detailed step-by-step protocol for this assay is described in Schwalm..

[2] = target: T2, NanoLuc-fusion full-length LC3B (Homo sapiens, UniProt Q9GZQ8); assay: as above; format: cell-based; details: NanoLuciferase-tagged LC3B, replicates
T2 construct: a fluorescent donor (in this case full length LC3A and LC3B); expressed in transfected cells; host or cells: HEK293T (ATCC; CRL-11268)
Experimental: as §1

LC3A = LC3A (Homo sapiens, UniProt Q9H492); assay: FP assay with 10O5- and 8F20-based dye-linked tracers 16 and 17; details: for Fluorescence polarization, protein titration LC3A with tween / Fluorescence polarization, protein titration LC3A without tween: replicates; for Fluorescence polarization, displacement experiment LC3A: competing compound not named, duplicates
Excerpt: (§2) The only experimental difference in our FP assay setup was the addition of 0.05% Tween-20, which is routinely used[27] to suppress unspecific binding of compounds to proteins.
(§3) Fluorescence polarization assay utilizing tracers 16 and 17 for interaction studies with LC3A
(§4) (upper panels) and LC3B (lower panels). The left panels depict protein titration measurements
(§5) detergent in the buffer to suppress unspecific binding. Middle panels depict displacement
Data were collected in technical
(§6) triplicates with error bars expressing the SD (n=3).

LC3B = LC3B (Homo sapiens, UniProt Q9GZQ8); assay: as above; details: for Fluorescence polarization, protein titration LC3B with tween / Fluorescence polarization, protein titration LC3B without tween: replicates; for Fluorescence polarization, displacement experiment LC3B: competing compound not named, duplicates
Excerpt: as §2, §3, §4, §5
Data were collected in technical
as §6

O=C(CCC1=[N+]2C(=Cc3ccc(-c4ccc[nH]4)n3[B-]2(F)F)C=C1)NCCCOCCOCCOCCCNC(=O)COc1c(Br)cc(C=C2C(=O)Nc3ccc(I)cc32)cc1Br (mixture of isomers) [Tracer 16]
NanoBRET signal, tracer titration, LC3A ([1]; log tracer [M] -6.00109): 124.819 and 118.345 and 124.774 and 114.881 | NanoBRET signal, tracer titration, LC3A ([1]; log tracer [M] -6.30155): 112.067 and 104.028 and 114.067 and 103.426 | NanoBRET signal, tracer titration, LC3A ([1]; log tracer [M] -6.60241): 103.182 and 101.845 and 103.925 and 98.4465 | NanoBRET signal, tracer titration, LC3A ([1]; log tracer [M] -6.90309): 99.2084 and 97.2576 and 109.844 and 92.211 | NanoBRET signal, tracer titration, LC3A ([1]; log tracer [M] -7.30112): 98.651 and 96.9847 and 99.2163 and 92.7664 | NanoBRET signal, tracer titration, LC3A ([1]; log tracer [M] -7.60206): 97.6362 and 98.7001 and 95.2489 and 95.6855 | NanoBRET signal, tracer titration, LC3A ([1]; log tracer [M] -7.92154): 98.1785 and 98.6876 and 96.8478 and 95.5754 | NanoBRET signal, tracer titration, LC3A ([1]; log tracer [M] -8.22214): 94.3049 and 97.3658 and 91.0337 and 96.1748 | NanoBRET signal, tracer titration, LC3A ([1]; log tracer [M] -8.52302): 97.3466 and 97.3205 and 85.6953 and 96.3749 | NanoBRET signal, tracer titration, LC3A ([1]; log tracer [M] -8.82391): 89.2788 and 95.7646 and 83.5217 and 94.9158 | NanoBRET signal, tracer titration, LC3A ([1]; log tracer [M] -9.00004): 83.6211 and 94.4654 and 83.1958 and 94.9397 | NanoBRET signal, tracer titration, LC3B ([2]; log tracer [M] -6.00109): 120.842 and 122.882 and 129.602 and 128.339 | NanoBRET signal, tracer titration, LC3B ([2]; log tracer [M] -6.30155): 120.38 and 105.763 and 124.568 and 118.005 | NanoBRET signal, tracer titration, LC3B ([2]; log tracer [M] -6.60241): 113.602 and 104.043 and 104.401 and 107.212 | NanoBRET signal, tracer titration, LC3B ([2]; log tracer [M] -6.90309): 98.6453 and 100.848 and 108.512 and 103.133 | NanoBRET signal, tracer titration, LC3B ([2]; log tracer [M] -7.30112): 89.1385 and 91.7873 and 88.9398 and 88.605 | NanoBRET signal, tracer titration, LC3B ([2]; log tracer [M] -7.60206): 87.7818 and 86.5962 and 85.9928 and 88.5055 | NanoBRET signal, tracer titration, LC3B ([2]; log tracer [M] -7.92154): 85.4561 and 91.534 and 90.0484 and 87.589 | NanoBRET signal, tracer titration, LC3B ([2]; log tracer [M] -8.22214): 87.644 and 91.0185 and 90.3527 and 95.3228 | NanoBRET signal, tracer titration, LC3B ([2]; log tracer [M] -8.52302): 88.7452 and 86.3664 and 89.605 and 108.381 | NanoBRET signal, tracer titration, LC3B ([2]; log tracer [M] -8.82391): 86.7783 and 81.6186 and 84.8664 and 94.2613 | NanoBRET signal, tracer titration, LC3B ([2]; log tracer [M] -9.00004): 83.8822 and 80.9003 and 85.0772 and 83.4655 | Fluorescence polarization, protein titration LC3A with tween (LC3A; Protein 0.1 µM): 17 and 27 and 22 and 26 | Fluorescence polarization, protein titration LC3A without tween (LC3A; Protein 0.1 µM): 141 and 128 and 122 and 148 | Fluorescence polarization, protein titration LC3A with tween (LC3A; Protein 0.25 µM): 23 and 27 (2×) and 19 | Fluorescence polarization, protein titration LC3A without tween (LC3A; Protein 0.25 µM): 184 and 161 and 131 and 173 | Fluorescence polarization, protein titration LC3A with tween (LC3A; Protein 0.5 µM): 22 and 18 and 24 and 23 | Fluorescence polarization, protein titration LC3A without tween (LC3A; Protein 0.5 µM): 214 and 168 and 152 and 148 | Fluorescence polarization, protein titration LC3A with tween (LC3A; Protein 1 µM): 36 and 25 and 24 and 27 | Fluorescence polarization, protein titration LC3A without tween (LC3A; Protein 1 µM): 178 and 174 and 173 and 142 | Fluorescence polarization, protein titration LC3A with tween (LC3A; Protein 5 µM): 23 and 19 and 21 and 25 | Fluorescence polarization, protein titration LC3A without tween (LC3A; Protein 5 µM): 196 and 185 and 203 and 124 | Fluorescence polarization, protein titration LC3A with tween (LC3A; Protein 10 µM): 18 and 19 and 20 and 25 | Fluorescence polarization, protein titration LC3A without tween (LC3A; Protein 10 µM): 234 and 191 and 193 and 156 | Fluorescence polarization, protein titration LC3A with tween (LC3A; Protein 25 µM): 18 and 17 and 26 and 19 | Fluorescence polarization, protein titration LC3A with tween (LC3A; Protein 50 µM): 29 and 17 and 28 and 31 | Fluorescence polarization, protein titration LC3A without tween (LC3A; Protein 50 µM): 218 and 219 and 177 and 165 | Fluorescence polarization, displacement experiment LC3A (LC3A; log Compound [M] -4.6031): 87.7778 and 70 | Fluorescence polarization, displacement experiment LC3A (LC3A; log Compound [M] -5.05839): 106.667 and 93.3333 | Fluorescence polarization, displacement experiment LC3A (LC3A; log Compound [M] -5.42608): 111.111 and 106.667 | Fluorescence polarization, displacement experiment LC3A (LC3A; log Compound [M] -5.727): 116.667 and 108.889 | Fluorescence polarization, displacement experiment LC3A (LC3A; log Compound [M] -6.20412): 80 and 87.7778 | Fluorescence polarization, displacement experiment LC3A (LC3A; log Compound [M] -6.6031): 94.4444 and 87.7778 | Fluorescence polarization, displacement experiment LC3A (LC3A; log Compound [M] -7.05839): 96.6667 and 90 | Fluorescence polarization, displacement experiment LC3A (LC3A; log Compound [M] -7.42608): 98.8889 and 88.8889 | Fluorescence polarization, displacement experiment LC3A (LC3A; log Compound [M] -7.727): 95.5556 and 110 | Fluorescence polarization, displacement experiment LC3A (LC3A; log Compound [M] -8.20412): 83.3333 and 101.111 | Fluorescence polarization, displacement experiment LC3A (LC3A; log Compound [M] -8.60189): 82.2222 and 100 | Fluorescence polarization, protein titration LC3B with tween (LC3B; Protein 0.1 µM): 14 and 24 and 21 and 25 | Fluorescence polarization, protein titration LC3B without tween (LC3B; Protein 0.1 µM): 191 and 155 and 157 and 173 | Fluorescence polarization, protein titration LC3B with tween (LC3B; Protein 0.25 µM): 30 and 20 (2×) and 28 | Fluorescence polarization, protein titration LC3B without tween (LC3B; Protein 0.25 µM): 187 and 186 and 175 and 167 | Fluorescence polarization, protein titration LC3B with tween (LC3B; Protein 0.5 µM): 23 and 18 and 30 and 16 | Fluorescence polarization, protein titration LC3B without tween (LC3B; Protein 0.5 µM): 191 and 197 and 195 and 171 | Fluorescence polarization, protein titration LC3B with tween (LC3B; Protein 1 µM): 18 and 20 and 17 and 25 | Fluorescence polarization, protein titration LC3B without tween (LC3B; Protein 1 µM): 223 and 203 and 198 and 217 | Fluorescence polarization, protein titration LC3B with tween (LC3B; Protein 5 µM): 24 (2×) and 19 and 17 | Fluorescence polarization, protein titration LC3B without tween (LC3B; Protein 5 µM): 203 and 175 and 213 and 191 | Fluorescence polarization, protein titration LC3B with tween (LC3B; Protein 10 µM): 26 and 22 and 24 and 28 | Fluorescence polarization, protein titration LC3B without tween (LC3B; Protein 10 µM): 222 and 196 and 207 and 175 | Fluorescence polarization, protein titration LC3B with tween (LC3B; Protein 25 µM): 25 and 29 and 18 and 31 | Fluorescence polarization, protein titration LC3B without tween (LC3B; Protein 25 µM): 233 and 224 and 191 and 192 | Fluorescence polarization, protein titration LC3B with tween (LC3B; Protein 50 µM): 16 and 30 and 20 and 21 | Fluorescence polarization, protein titration LC3B without tween (LC3B; Protein 50 µM): 207 and 200 and 195 and 162 | Fluorescence polarization, displacement experiment LC3B (LC3B; log Compound [M] -4.6031): 127.5 and 111.25 | Fluorescence polarization, displacement experiment LC3B (LC3B; log Compound [M] -5.05839): 100 and 118.75 | Fluorescence polarization, displacement experiment LC3B (LC3B; log Compound [M] -5.42608): 91.25 and 100.625 | Fluorescence polarization, displacement experiment LC3B (LC3B; log Compound [M] -5.727): 105 and 99.375 | Fluorescence polarization, displacement experiment LC3B (LC3B; log Compound [M] -6.20412): 76.875 and 78.125 | Fluorescence polarization, displacement experiment LC3B (LC3B; log Compound [M] -6.6031): 97.5 and 96.25 | Fluorescence polarization, displacement experiment LC3B (LC3B; log Compound [M] -7.05839): 95 and 98.75 | Fluorescence polarization, displacement experiment LC3B (LC3B; log Compound [M] -7.42608): 104.375 and 100 | Fluorescence polarization, displacement experiment LC3B (LC3B; log Compound [M] -7.727): 103.125 and 101.875 | Fluorescence polarization, displacement experiment LC3B (LC3B; log Compound [M] -8.20412): 91.25 and 75.625 | Fluorescence polarization, displacement experiment LC3B (LC3B; log Compound [M] -8.60189): 93.125 and 92.5
